These results are taken from US6300350A, “Treatment of emphysema using RARy selective retinoid agonists” (priority 2000, dated 2001).

Like-named read-outs stand apart in the source and are kept apart here.

One data set has as its system emphysema. The note with it: animal models of emphysema; cited from earlier work.
The test system of data set [1] is elastase-induced emphysema. Briefly: Alveolar repair in rat model of elastase-induced emphysema, intraperitoneal. Set-up: Alveolar Area: unit not given here. It is filed as in vivo, male Sprague Dawley rats. As for the experimental part: Animals were divided into treatment groups of approximately eight. […] Three weeks post injury ATRA or a RAR selective agonist was dissolved in DMSO (20 mg/ml) and stored at -20 C. Fresh working stocks were prepared fresh daily by dilution in corn oil to a final concentration of 2 mg/ml. […] Control groups were challenged with elastase and 21 days later treated with Vehicle (DMSO/PBS) for 14 days. Animals were sacrificed 24 hours after the last dose of by exsanguination under deep anesthesia. Blood was collected at time of exanguination for analysis of changes in blood chemistry from respective treatments. The lungs were inflated with 10% neutral buffered formalin by intratracheal instillation at a constant rate (1 ml/gram body mass/min). The lung was excised and immersed in fixative for 24 hours prior to processing. Standard methods were used to prepare 5 um paraffin sections. Sections were stained with Hematoxylin and Eosin (H%E). Computerized Morphometric analysis was performed to determine the average alveolar size and alveolar number.

The next data set has as its system RAR subtypes. The settings on record: cited from earlier work.
A further data set relates to tropoelastin gene. Briefly: RAR transactivation of steady state tropoelastin gene in normal human lung fibroblasts (CCD-16Lu). Format: cell-based. On the procedure: Transactivation of the tropoelastin gene in normal human lung fibroblasts (CCD-16Lu) was performed as described below. Cells were grown to confluence at which time fresh media +/- ATRA or selective retiniod was added to the basal culture. ATRA and/or selective retiniods were used at a concentration of 1×10^-7 M. The cell layer was lysed using a guanidinium-based buffer (TRIZOL/Sigma) for RNA extraction and analysis. Amplification of tropoelastin and GAPDH RNA was performed by standard quantitative RT-PCR (TAQMAN, Perken/Elmer) using appropriate selective primers. Tropo-elastin gene expression was normalized to the expression of standard house-keeping gene (GAPDH).
Samples were run in triplicate.

The next data set deals with experimental emphysema. Briefly: Alveolar repair in rat experimental emphysema, oral dosing. Format: in vivo, rats. The note with it: 1 mg/kg/PO daily for two weeks. On the procedure: Three (3) weeks post injury animals were treated with vehicle (Capmul solution) or retinoids prepared in Capmul and dosed orally at 1, 3, and 10 mg/kg body weight. Animals were treated for 14 days prior to termination of study.
Dosage was at 1 mg/kg/PO daily for two weeks.

The next data set has as its system alveolar septation. The note with it: postnatal administration, newborn rats, cited from earlier work.
The next data set relates to RXR receptors. The settings on record: cited from earlier work.
Data set [2] in a line: Plasma triglyceride levels in rats. The note with it: plasma, 1 mg/kg/PO daily for two weeks. Format: in vivo. As for the experimental part: Experimental emphysema was induced in rats as described in Example 2. Three (3) weeks post injury animals were treated with vehicle (Capmul solution) or retinoids prepared in Capmul and dosed orally at 1, 3, and 10 mg/kg body weight. Animals were treated for 14 days prior to termination of study. Lung harvest and blood collection was performed as described in Example 2.
Quantitation of triglycerides contained in rat plasma was performed after using established procedures in a contact clinical laboratory facility. Briefly, plasma triglycerides were converted to dihdroxyacetone and H2 O2, by sequential treatment of plasma with lipase and glycerokinase according directions described by manufacturer of triglycerides/GPO kit (Boehringer Mannheim #1488872). H2 02 was quantitated calorimetrically in a Hitachi 911 Chemistry Analyzer. In rats normal triglyceride levels are 75-175 mg/dl.
Dosage was at 1 mg/kg/PO daily for two weeks. […] Therefore, it appears that RARα selective activity is linked to elevated triglyceride levels.

For the compound `CC1=C(/C=C/C(C)=C/C=C/C(C)=C/C(=O)O)C(C)(C)CCC1` [RAR Agonist 4, All-trans retinoic acid], the “formation of new alveoli and elastic recoil (in words)” value in the data set on emphysema is “can induce formation of new alveoli and return elastic recoil to near normal”. Moreover, the “% Repair” value stood at 50% in data set [1] (0.5 mg/kg ip once daily, from 21 days post injury, 14 days) and 37.6% in the data set on experimental emphysema. In addition, the “Alveolar Area” value in data set [1] (0.5 mg/kg ip once daily, from 21 days post injury, 14 days, naive 1637 +/- 153, elastase + vehicle 3570 +/- 319) is on record as 2607 +/- 191. Besides, the “alveolar repair (in words)” value in data set [1] (elastase-treated rats, 0.5 mg/kg ip) is given as “induces alveolar repair, reversing the alveolar destruction caused by treatment with elastase”. The “binding to the three RAR subtypes (in words)” value in the data set with RAR subtypes is given as “binds with approximately equal affinity to all the three RAR subtypes”. Moreover, in the data set with tropoelastin gene (CCD-16Lu, 1×10^-7 M, RT-PCR, triplicate, untreated control 30.90), the “Tropo-elastin Expression” value was 35.50 (Elastin/GAPDH) × 10^5. For the same compound, the “tropoelastin gene induction (in words)” value with tropoelastin gene (human lung fibroblasts, compared to the control) is reported as “slightly induces tropoelastin gene induction”. For the same compound, in the data set with alveolar septation (listed as ATRA), the “number of alveoli / septation in lungs (in words)” value is “the capacity of dexamethasone to prevent the expression of CRBP and RARβ mRNA and subsequent alveolar septation in developing rat lung was abrogated by ATRA”. Further, in the data set with RXR receptors, the “binding to RXR receptors (in words)” value was “does not bind to the RXR receptors”. Also, the “triglyceride levels (in words)” value in data set [2] is “either on the high end of normal or elevated”. In addition, in data set [2] (normal rat 75-175 mg/dl), the “[Triglyceride]” value amounted to 182 mg/dL.
Take `C[C@@H]1C[C@H]2[C@@H]3CCC4=CC(=O)C=C[C@]4(C)[C@@]3(F)[C@@H](O)C[C@]2(C)[C@@]1(O)C(=O)CO` [dexamethasone]: the “number of alveoli / septation in lungs (in words)” value in the data set on alveolar septation was “inhibits the process of septation in the lungs”.
With `CC1=C(/C=C/C(C)=C\C=C\C(C)=C\C(=O)O)C(C)(C)CCC1` [9-cis retinoic acid], the “binding to RXR receptors (in words)” value with RXR receptors was “is the natural ligand”.
